# Data reported in US20230233569A1 (Revolution Medicines, Inc., priority 2020, published 2023).
# Where “and” joins values, the source holds several entries; their conditions need not be identical. Equal values may be shown once. Read-outs that look alike come from different tables or passages of the source.
# Experiments:
# [1] = system: K-Ras G12C (NCI-H358 cells); test: Potency assay: pERK (AlphaLISA SureFire or In-Cell Western); type: cell-based; conditions: Homo sapiens
# Description: (§1) The purpose of this assay is to measure the ability of test compounds to inhibit K-Ras in cells. […] This procedure measures a decrease in cellular pERK in response to test compounds.
# (§2) NCI-H358 cells were grown and maintained using media and procedures recommended by the ATCC. On the day prior to compound addition, cells were plated in 384-well cell culture plates (40 μl/well) and grown overnight in a 37° C., 5% CO2 incubator. Test compounds were prepared in 10, 3-fold dilutions in DMSO, with a high concentration of 10 mM. On the day of assay, 40 nL of test compound was added to each well of cell culture plate using an Echo550 liquid handler (LabCyte®). Concentrations of test compound were tested in duplicate. After compound addition, cells were incubated 4 hours at 37° C., 5% CO2. Following incubation, culture medium was removed and cells were washed once with phosphate buffered saline.
# (§3) In some experiments, cellular pERK level was determined using the AlphaLISA SureFire Ultra p-ERK1/2 Assay Kit (PerkinElmer). Cells were lysed in 25 μL lysis buffer, with shaking at 600 RPM at room temperature. […] After a 2-hour incubation in the dark, 5 μL donor mix was added, plate was sealed, and incubated 2 hours at room temperature. Signal was read on an Envision plate reader (PerkinElmer) using standard AlphaLISA settings. Analysis of raw data was carried out in Excel (Microsoft) and Prism (GraphPad). Signal was plotted vs. the decadal logarithm of compound concentration, and IC50 was determined by fitting a 4-parameter sigmoidal concentration response model.
# In other experiments, cellular pERK was determined by In-Cell Western. […] Fixed cells were washed 4 times for 5 minutes with TBS containing 0.1% Triton X-100 (TBST) and then blocked with 100 μL Odyssey blocking buffer (LI-COR) for 60 minutes at room temperature. […] Cells were washed 4 times for 5 minutes with TBST. Secondary antibody (IR-800CW rabbit, LI-COR, diluted 1:800) and DNA stain DRAQ5 (LI-COR, diluted 1:2000) were added and incubated 1-2 hours at room temperature. Cells were washed 4 times for 5 minutes with TBST. Plates were scanned on a LI-COR Odyssey CLx Imager. Analysis of raw data was carried out in Excel (Microsoft) and Prism (GraphPad). Signal was plotted vs. the decadal logarithm of compound concentration, and IC50 was determined by fitting a 4-parameter sigmoidal concentration response model.
# as §1
# as §2, with “mM. On day of” for “mM. On the day of”, “assay, 40 nl of test” for “assay, 40 nL of test”
# as §3, with “μl” for “μL”, “sealed” for “sealed,”
# KRAS G12V = KRAS G12V (Homo sapiens, UniProt P01116+P62937, G12V); test: Disruption of BRAF RBD interaction with Ras (FRET / MOA assay, with Cyclophilin A); type: biochemical
# Outline: (§4)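 IC50 values reflect loss of K-Ras binding to BRAF RBD, read as a lowered TR-FRET ratio compared with DMSO, driven by compound-mediated K-Ras:Cyclophilin A complex formation. Compound top dose 30 μM final, 3-fold steps, 3 h incubation at 25 °C before a 1.5 h antibody step.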
# NRAS G12C = NRAS G12C (Homo sapiens, UniProt P01111+P62937, G12C); test: as above; type: biochemical
# KRAS G12S = KRAS G12S (Homo sapiens, UniProt P01116+P62937, G12S); test: as above; type: biochemical
# Outline: as §4
# KRAS WT = KRAS WT (Homo sapiens, UniProt P01116+P62937); test: as above; type: biochemical
# Outline: as §4
# KRAS G13D = KRAS G13D (Homo sapiens, UniProt P01116+P62937, G13D); test: as above; type: biochemical
# Outline: as §4
# KRAS G13C = KRAS G13C (Homo sapiens, UniProt P01116+P62937, G13C); test: as above; type: biochemical
# Outline: as §4
# KRAS G12C = KRAS G12C (Homo sapiens, UniProt P01116+P62937, G12C); test: as above; type: biochemical
# Outline: as §4
# KRAS G12D = KRAS G12D (Homo sapiens, UniProt P01116+P62937, G12D); test: as above; type: biochemical
# Outline: as §4
# NCI-H358 (K-Ras G12C) = test: CellTiter-Glo cell viability assay, 5-day treatment; type: cell-based; conditions: Homo sapiens, NCI-H358, H358, K-Ras G12C; read-out: Additional H358 Cell Viability assay data (K-Ras G12C, IC50)
# Outline: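 Compounds were dispensed directly onto seeded cells and incubated for 5 days, then plates were equilibrated to room temperature for about 30 minutes before luminescence reading. Signals were expressed as percent of the mean DMSO control and fitted with a four-parameter logistic curve.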
# [2] = NCI-H358, H358 KRAS G12C, read-out: pERK EC50
# [3] = KRAS G12V, read-out: KRAS G12V FRET data IC50
# [4] = NRAS G12C, read-out: NRAS G12C FRET data IC50
# [5] = read-out: KRAS G12S FRET data, IC50
# [6] = KRAS WT, read-out: KRAS WT FRET data IC50
# [7] = KRAS G13D, read-out: KRAS G13D FRET data IC50
# [8] = KRAS G13C, read-out: KRAS G13C FRET data IC50
# [9] = KRAS G12C, read-out: KRAS G12C FRET data IC50
# [10] = read-out: KRAS G12D FRET data, IC50
# NRAS G12C, sequence (P01111 whole entry G12C): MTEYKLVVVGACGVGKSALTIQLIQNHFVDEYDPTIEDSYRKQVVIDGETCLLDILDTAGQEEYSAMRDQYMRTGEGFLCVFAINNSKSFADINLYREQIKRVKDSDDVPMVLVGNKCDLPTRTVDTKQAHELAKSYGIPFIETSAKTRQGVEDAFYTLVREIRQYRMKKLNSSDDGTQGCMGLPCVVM
# NRAS G12C, sequence (P62937 whole entry): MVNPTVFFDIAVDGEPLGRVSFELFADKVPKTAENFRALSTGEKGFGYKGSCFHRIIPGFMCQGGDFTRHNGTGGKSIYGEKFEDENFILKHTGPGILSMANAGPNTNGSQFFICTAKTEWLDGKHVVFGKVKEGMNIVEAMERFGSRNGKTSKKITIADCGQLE
# KRAS G12D, sequence (P01116 1-169 isoform P01116-2 G12D limits assumed): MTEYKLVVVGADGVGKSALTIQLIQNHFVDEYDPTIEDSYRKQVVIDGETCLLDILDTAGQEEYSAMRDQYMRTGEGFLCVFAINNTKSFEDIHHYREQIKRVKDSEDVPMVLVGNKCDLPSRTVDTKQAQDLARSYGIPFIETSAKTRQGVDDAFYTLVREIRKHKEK
# KRAS G12D, sequence (P62937 whole entry): as the sequence (P62937 whole entry) above
# KRAS G13D, sequence (P01116 1-169 isoform P01116-2 G13D limits assumed): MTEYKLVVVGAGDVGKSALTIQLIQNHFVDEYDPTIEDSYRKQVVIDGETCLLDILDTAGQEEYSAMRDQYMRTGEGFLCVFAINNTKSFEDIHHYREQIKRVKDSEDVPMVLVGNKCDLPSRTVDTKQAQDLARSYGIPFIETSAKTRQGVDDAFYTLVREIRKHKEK
# KRAS G13D, sequence (P62937 whole entry): as the sequence (P62937 whole entry) above
# KRAS G12S, sequence (P01116 1-169 isoform P01116-2 G12S limits assumed): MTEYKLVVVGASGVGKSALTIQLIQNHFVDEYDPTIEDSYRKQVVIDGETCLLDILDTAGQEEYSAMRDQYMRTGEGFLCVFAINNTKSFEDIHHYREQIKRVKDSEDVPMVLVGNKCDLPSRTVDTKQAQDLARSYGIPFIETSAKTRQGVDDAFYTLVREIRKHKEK
# KRAS G12S, sequence (P62937 whole entry): as the sequence (P62937 whole entry) above
# KRAS WT, sequence (P01116 1-169 isoform P01116-2 limits assumed): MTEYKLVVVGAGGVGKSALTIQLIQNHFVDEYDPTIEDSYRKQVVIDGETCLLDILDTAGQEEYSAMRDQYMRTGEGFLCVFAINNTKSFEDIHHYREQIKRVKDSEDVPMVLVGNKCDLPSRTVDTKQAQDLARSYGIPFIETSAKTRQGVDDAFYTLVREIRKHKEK
# KRAS WT, sequence (P62937 whole entry): as the sequence (P62937 whole entry) above
# KRAS G13C, sequence (P01116 1-169 isoform P01116-2 G13C): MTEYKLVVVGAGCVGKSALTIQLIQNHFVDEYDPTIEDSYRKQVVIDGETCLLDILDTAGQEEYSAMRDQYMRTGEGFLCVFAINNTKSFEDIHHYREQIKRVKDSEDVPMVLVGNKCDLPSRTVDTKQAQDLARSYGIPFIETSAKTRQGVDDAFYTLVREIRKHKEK
# KRAS G13C, sequence (P62937 whole entry): as the sequence (P62937 whole entry) above
# KRAS G12C, sequence (P01116 1-169 isoform P01116-2 G12C): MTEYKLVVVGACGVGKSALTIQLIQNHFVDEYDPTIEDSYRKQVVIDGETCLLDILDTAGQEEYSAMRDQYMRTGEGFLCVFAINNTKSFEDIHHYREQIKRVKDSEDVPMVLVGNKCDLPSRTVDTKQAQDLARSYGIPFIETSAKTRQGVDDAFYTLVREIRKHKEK
# KRAS G12C, sequence (P62937 whole entry): as the sequence (P62937 whole entry) above
# KRAS G12V, sequence (P01116 1-169 isoform P01116-2 G12V limits assumed): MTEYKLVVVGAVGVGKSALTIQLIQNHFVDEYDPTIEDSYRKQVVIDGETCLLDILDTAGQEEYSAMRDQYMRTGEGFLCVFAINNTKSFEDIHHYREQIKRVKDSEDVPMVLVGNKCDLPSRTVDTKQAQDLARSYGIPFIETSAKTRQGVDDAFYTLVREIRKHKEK
# KRAS G12V, sequence (P62937 whole entry): as the sequence (P62937 whole entry) above
Structure (SMILES),"EC50 [1, 2] [µM]",IC50 (KRAS G12V; [3]),IC50 (NRAS G12C; [4]),IC50 (KRAS G12S; [5]),IC50 (KRAS WT; [6]),IC50 (KRAS G13D; [7]),IC50 (KRAS G13C; [8]),IC50 (KRAS G12C; [9]),IC50 (KRAS G12D; [10]),IC50 (NCI-H358 (K-Ras G12C)) [µM],"EC50 ([1]; NCI-H358, read-out: pERK EC50) [µM]","IC50 (KRAS G12V; KRAS G12V FRET data IC50, KRAS G12V) [µM]","IC50 (NRAS G12C; NRAS G12C FRET data IC50, NRAS G12C) [µM]","IC50 (KRAS G12S; KRAS G12S FRET data, IC50) [µM]","IC50 (KRAS WT; KRAS WT FRET data IC50, KRAS WT) [µM]","IC50 (KRAS G13D; KRAS G13D FRET data IC50, KRAS G13D) [µM]","IC50 (KRAS G13C; KRAS G13C FRET data IC50, KRAS G13C) [µM]","IC50 (KRAS G12C; KRAS G12C FRET data IC50, KRAS G12C) [µM]","IC50 (KRAS G12D; KRAS G12D FRET data, IC50) [µM]"
CCn1c(-c2cncnc2)c2c3cc(ccc31)-c1cc(O)cc(c1)C[C@H](NC(=O)[C@H](C(C)C)N(C)C(=O)[C@H]1CCN(C(=O)C#CCN(C)C)C1)C(=O)N1CCC[C@H](N1)C(=O)OCC(C)(C)C2 [Example A108],< 5,1 to 10 µM,< 0.01 µM,1 to 10 µM,1 to 10 µM,1 to 10 µM,0.01 to 0.1 µM,< 0.01 µM,1 to 10 µM,< 0.01,,,,,,,,,
CCn1c(-c2cccnc2[C@H](C)OC)c2c3cc(ccc31)-c1cc(O)cc(c1)C[C@H](NC(=O)[C@H](C(C)C)N(C)C(=O)[C@H]1CCN(C(=O)C#CCN3CCOCC3)C1)C(=O)N1CCC[C@H](N1)C(=O)OCC(C)(C)C2 [Example A182],< 5,0.1 to 1 µM and 1 to 10 µM,0.01 to 0.1 µM and < 0.01 µM,0.1 to 1 µM and 1 to 10 µM,0.1 to 1 µM and 1 to 10 µM,0.1 to 1 µM and 1 to 10 µM,1 to 10 µM and 0.01 to 0.1 µM,0.01 to 0.1 µM and < 0.01 µM,1 to 10 µM and > 10 µM,0.01 to 0.1,,,,,,,,,
C=CC(=O)N1CC[C@H](C(=O)N(C)[C@H](C(=O)N[C@H]2Cc3cccc(c3)-c3ccc4c(c3)c(c(-c3cccnc3[C@H](C)OC)n4CC)CC(C)(C)COC(=O)[C@@H]3CCCN(O3)C2=O)C(C)C)C1 [Example A284],,,,,,,,,,0.1 to 1,< 5,> 10,1 to 10,> 10,> 10,> 10,1 to 10,0.1 to 1,> 10
C=CC(=O)N1CC[C@H](C(=O)N(C)[C@H](C(=O)N[C@H]2Cc3cc(O)cc(c3)-c3ccc4c(c3)c(c(-c3cc(CN(C)C)cnc3COC)n4CC)CC(C)(C)COC(=O)[C@@H]3CCCN(N3)C2=O)C(C)C)C1 [Example A149],< 5,0.1 to 1 µM,0.01 to 0.1 µM,0.1 to 1 µM,0.1 to 1 µM,0.1 to 1 µM,0.1 to 1 µM,0.01 to 0.1 µM,1 to 10 µM,0.01 to 0.1,,,,,,,,,

# Now from value to compound, other results behind:
"EC50 [1, 2] [µM]",IC50 (KRAS G12V; [3]),IC50 (NRAS G12C; [4]),IC50 (KRAS G12S; [5]),IC50 (KRAS WT; [6]),IC50 (KRAS G13D; [7]),IC50 (KRAS G13C; [8]),IC50 (KRAS G12C; [9]),IC50 (KRAS G12D; [10]),Structure (SMILES),IC50 (NCI-H358 (K-Ras G12C)) [µM],"EC50 ([1]; NCI-H358, read-out: pERK EC50) [µM]","IC50 (KRAS G12V; KRAS G12V FRET data IC50, KRAS G12V) [µM]","IC50 (NRAS G12C; NRAS G12C FRET data IC50, NRAS G12C) [µM]","IC50 (KRAS G12S; KRAS G12S FRET data, IC50) [µM]","IC50 (KRAS WT; KRAS WT FRET data IC50, KRAS WT) [µM]","IC50 (KRAS G13D; KRAS G13D FRET data IC50, KRAS G13D) [µM]","IC50 (KRAS G13C; KRAS G13C FRET data IC50, KRAS G13C) [µM]","IC50 (KRAS G12C; KRAS G12C FRET data IC50, KRAS G12C) [µM]","IC50 (KRAS G12D; KRAS G12D FRET data, IC50) [µM]"
< 5,1 to 10 µM,0.1 to 1 µM,1 to 10 µM,1 to 10 µM,1 to 10 µM,1 to 10 µM,0.1 to 1 µM,1 to 10 µM,CCn1c(-c2cccnc2[C@H](C)OC)c2c3cc(ccc31)-c1csc(n1)C[C@H](NC(=O)[C@H](C(C)C)N(C)C(=O)[C@H]1CCN(C(=O)/C=C/CN(C)C)C1)C(=O)N1CCC[C@H](N1)C(=O)OCC(C)(C)C2 [Example A282],0.01 to 0.1,,,,,,,,,
< 5,> 10 µM,0.1 to 1 µM,> 10 µM,> 10 µM,1 to 10 µM,1 to 10 µM,0.01 to 0.1 µM,1 to 10 µM,CCn1c(-c2cccnc2COC)c2c3cc(ccc31)-c1cc(O)cc(c1)C[C@H](NC(=O)[C@@H](C(C)C)N(C)C(=O)[C@H]1CCN(C(=O)C#CCN(C)C)C1)C(=O)N1CCC[C@H](N1)C(=O)OCC(C)(C)C2 [Example A156],0.01 to 0.1,,,,,,,,,
< 5,1 to 10 µM,0.1 to 1 µM,1 to 10 µM,1 to 10 µM,1 to 10 µM,1 to 10 µM,0.1 to 1 µM,> 10 µM,C=CC(=O)N1CC[C@H](C(=O)N(C)[C@H](C(=O)N[C@H]2Cc3cc(O)cc(c3)-c3ccc4c(c3)c(c(-c3cccnc3[C@H](C)OC)n4C)CC(C)(C)COC(=O)[C@@H]3CCCN(N3)C2=O)C(C)C)C1 [Example A197],0.01 to 0.1,,,,,,,,,
< 5,> 10 µM,0.01 to 0.1 µM,> 10 µM,> 10 µM,> 10 µM,1 to 10 µM,0.01 to 0.1 µM,> 10 µM,CCn1c(-c2cccnc2COC)c2c3cc(ccc31)-c1cc(O)cc(c1)C[C@H](NC(=O)[C@@H](C(C)C)N(C)C(=O)[C@H]1CCN(C(=O)C#CC(C)N3CCOCC3)C1)C(=O)N1CCC[C@H](N1)C(=O)OCC(C)(C)C2 (some centres unmarked) [Example A200],0.1 to 1,,,,,,,,,
